Measurements: patent US8552184B2, “Compounds and methods for treating disorders related to glucose metabolism” (Melior Pharmaceuticals I, Inc., priority 2008, dated 2013)
Entries after “also recorded” stand apart in the source; their conditions may differ.

Key:
[1] = test system: CD1 male mice; assay: Oral glucose tolerance test (mouse model of hyperglycemia / type II diabetes); type: in vivo; conditions: for Effect on blood glucose levels (in words): mouse model of hyperglycemia, high glucose load
From the text: Type II diabetes is characterized by high blood glucose levels in the presence of normal amounts of insulin. Animal models of type II diabetes involve administering high levels of glucose and measuring blood glucose levels and the ability of the experimental animal to maintain glucose homeostasis over time. Several pharmacological structural classes can effectively regulate this hyperglycemic response including sulfonylureas, thiazoladinediones (PPARγ agonists; glitazones) or metformin (glucophage). These drug classes are also clinically approved for use in humans. In one present study, a mouse model of hyperglycemia has been established by administering high levels of glucose to mice.
CD1 male mice (Harlan, Indianapolis, Ind.) of between 8 and 10 weeks of age were fasted 18 hours prior to the start of the study. All blood glucose levels were measured using an Accu-Check Aviva glucose monitors with Aviva glucose test strips from a blood drop derived from the mouse tail. Prior to any treatment, baseline levels of blood glucose were measured in fasted mice. Thirty minutes after baseline measurement, Compound 101 or vehicle was administered via intravenous administration. Thirty minutes after compound administration, animals were administered an oral solution (via gavage) of glucose in distilled water. The dose of glucose was 1.5 g/Kg of body weight. Blood glucose levels were measured 15, 30, 60, 90 and 120 minutes after glucose challenge. There were 6 mice per treatment group.
Blood glucose levels were taken from treated and untreated groups at the times above and measured for concentration of glucose in milligram per deciliter of blood of sample. Average values were calculated for each time point from each group and summarized after performing statistical analysis in Table III below:
After plotting the concentration of blood glucose level over time of treated verses non-treated groups, the area under each curve was calculated to determine the glucose exposure of the treated groups of mice over time. A Student's t test with a p value of <0.001 was performed to generate a standard deviation for the average calculated glucose exposure of the group treated with Compound 101 as compared to the group treated with vehicle alone.

[2] = test system: CD1 male mice; assay: as above; type: in vivo; conditions: area under blood glucose vs time curve; 7 mg/kg intravenous; oral glucose 1.5 g/Kg; p < 0.01 vs vehicle

SMILES | Blood glucose levels, AVG ± SEM ([1]; 0 min, baseline in fasted mice before treatment, Compound 101 group (7 mg/kg intravenous given at 30 min)) | Blood glucose levels, AVG ± SEM ([1]; 75 minutes (15 min after oral glucose 1.5 g/Kg), 7 mg/kg intravenous, 30 min before glucose) | Blood glucose levels, AVG ± SEM ([1]; 90 minutes (30 min after oral glucose 1.5 g/Kg), 7 mg/kg intravenous, 30 min before glucose) | Blood glucose levels, AVG ± SEM ([1]; 120 minutes (60 min after oral glucose 1.5 g/Kg), 7 mg/kg intravenous, 30 min before glucose) | Blood glucose levels, AVG ± SEM ([1]; 150 minutes (90 min after oral glucose 1.5 g/Kg), 7 mg/kg intravenous, 30 min before glucose) | Blood glucose levels, AVG ± SEM ([1]; 180 minutes (120 min after oral glucose 1.5 g/Kg), 7 mg/kg intravenous, 30 min before glucose) | Effect on blood glucose levels (in words) [1] | Glucose Exposure (Area Under the Curve; AUC), blood glucose levels AUC [2]
Cc1cccc(Oc2c[nH]c(=O)[nH]c2=O)c1 [Compound 101, 5-(m-tolyloxy)pyrimidine-2,4(1H,3H)-dione] | 62.0 ± 13.1 mg/dL | 119.6 ± 36.0 mg/dL | 156.4 ± 55.9 mg/dL | 152.2 ± 33.9 mg/dL | 107.8 ± 34.1 mg/dL | 102.6 ± 39.9 mg/dL | effective in reducing blood glucose levels; also recorded: effectively controls glucose levels in vivo | 8424.7 ± 1922.5 mg·min/dL
CN(C)C(=N)N=C(N)N [metformin, reference compound] | – | – | – | – | – | – | can effectively reduce the blood glucose load | –
